Test results from patent US6056958A, “Method of treatment of arterial and venous thromboembolic disorders” (Dupont Pharmaceuticals, priority 1997, dated 2000).
Like-named read-outs stand apart in the source and are kept apart here. Non-standard residues stand in square brackets, D forms with d. Residues, ends and D or L forms follow the SMILES beside them. 3Amb = NCc1cccc(C(=O)O)c1

Experiments:
[1] = biological target: T1, αv /β3 receptor (Homo sapiens, UniProt P05106+P06756); test: αv/β3-Biotinylated Vitronectin Binding Assay; conditions: for IC50: inhibition of vitronectin binding to purified αv/β3; for Relative Binding Affinity for αv /β3 Relative to GPIIb/IIIa: ratio of IC50 values (GPIIb/IIIa over αv/β3)
T1 construct: The αv /β3 receptor was isolated from human placental extracts prepared using octylglucoside; from tissue
T1 sequence (P06756 31-889 limits assumed): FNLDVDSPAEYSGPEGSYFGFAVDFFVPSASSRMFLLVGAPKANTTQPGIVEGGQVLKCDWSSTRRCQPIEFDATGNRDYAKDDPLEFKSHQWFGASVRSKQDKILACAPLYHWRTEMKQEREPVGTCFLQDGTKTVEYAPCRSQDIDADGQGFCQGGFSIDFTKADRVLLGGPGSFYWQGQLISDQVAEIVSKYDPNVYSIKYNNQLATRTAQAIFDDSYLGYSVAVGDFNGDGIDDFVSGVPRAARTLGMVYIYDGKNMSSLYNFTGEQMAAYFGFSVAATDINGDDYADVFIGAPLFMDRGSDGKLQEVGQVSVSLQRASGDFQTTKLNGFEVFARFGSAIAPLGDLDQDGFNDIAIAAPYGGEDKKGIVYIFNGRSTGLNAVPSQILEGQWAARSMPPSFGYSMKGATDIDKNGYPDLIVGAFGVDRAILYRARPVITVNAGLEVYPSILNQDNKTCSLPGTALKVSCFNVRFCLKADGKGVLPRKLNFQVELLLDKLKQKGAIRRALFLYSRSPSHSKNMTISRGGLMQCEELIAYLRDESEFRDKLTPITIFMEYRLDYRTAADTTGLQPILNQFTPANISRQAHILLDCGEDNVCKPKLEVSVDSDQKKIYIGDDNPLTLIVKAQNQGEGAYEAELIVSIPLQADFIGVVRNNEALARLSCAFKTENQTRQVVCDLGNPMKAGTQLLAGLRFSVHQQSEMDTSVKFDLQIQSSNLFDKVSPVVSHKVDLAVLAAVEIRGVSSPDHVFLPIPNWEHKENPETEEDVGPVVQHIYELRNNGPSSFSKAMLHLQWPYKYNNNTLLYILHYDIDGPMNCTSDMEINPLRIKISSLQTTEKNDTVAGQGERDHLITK
T1 sequence (P06756 891-1048 partner limits assumed): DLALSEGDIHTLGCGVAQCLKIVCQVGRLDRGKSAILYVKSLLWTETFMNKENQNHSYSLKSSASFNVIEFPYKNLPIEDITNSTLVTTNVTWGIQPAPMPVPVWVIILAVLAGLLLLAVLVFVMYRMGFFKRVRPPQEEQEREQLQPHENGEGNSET
T1 sequence (P05106 27-788): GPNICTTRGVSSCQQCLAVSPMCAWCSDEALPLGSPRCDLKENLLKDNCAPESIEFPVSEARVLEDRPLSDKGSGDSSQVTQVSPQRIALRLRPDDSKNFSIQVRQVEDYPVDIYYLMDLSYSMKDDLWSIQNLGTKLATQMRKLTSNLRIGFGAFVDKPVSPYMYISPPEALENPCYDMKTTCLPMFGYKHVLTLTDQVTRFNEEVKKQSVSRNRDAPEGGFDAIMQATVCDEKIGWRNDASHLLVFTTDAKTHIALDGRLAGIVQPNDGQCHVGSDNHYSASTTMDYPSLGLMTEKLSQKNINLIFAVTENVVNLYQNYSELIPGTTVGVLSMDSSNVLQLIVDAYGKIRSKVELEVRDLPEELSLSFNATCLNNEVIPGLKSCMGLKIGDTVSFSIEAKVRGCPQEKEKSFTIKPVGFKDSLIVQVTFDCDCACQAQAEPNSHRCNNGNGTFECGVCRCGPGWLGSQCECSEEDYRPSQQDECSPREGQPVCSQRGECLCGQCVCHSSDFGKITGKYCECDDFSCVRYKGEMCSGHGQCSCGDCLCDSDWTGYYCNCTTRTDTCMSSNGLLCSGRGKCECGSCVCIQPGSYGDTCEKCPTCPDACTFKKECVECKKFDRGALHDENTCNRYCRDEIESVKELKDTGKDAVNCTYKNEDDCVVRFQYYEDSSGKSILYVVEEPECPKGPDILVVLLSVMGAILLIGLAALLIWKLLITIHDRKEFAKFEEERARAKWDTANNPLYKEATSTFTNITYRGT
Source text: Compounds may be tested for their ability to block binding of vitronectin to the αv /β3 receptor and to block the binding of fibrinogen to GPIIb/IIIa receptor in the αv /β3 -Biotinylated Vitronectin Binding Assay and GPIIb/IIIa Receptor-Biotinylated Fibrinogen Binding Assay described below.
αv /β3 -Biotinylated Vitronectin Binding Assay
The αv /β3 receptor was isolated from human placental extracts prepared using octylglucoside. The extract was passed over an anti-αv /β3 monoclonal antibody (LM609) affinity column (prepared using LM609 and Affigel 10). The column was subsequently washed extensively at pH 7 and pH 4.5 followed by elution at pH 3. The resulting sample was concentrated by wheat germ agglutinin chromatography to provide a αv /β3 -containing sample which gave two bands on SDS-PAGE which were confirmed as αv /β3 by western blotting.
The affinity purified αv /β3 protein as described above was diluted at different levels and plated to 96 well plates (about 15 ng of αv /β3 protein per well). ELISA detection of αv /β3 -bound biotinylated vitronectin was performed as described below using fixed concentration of biotinylated vitronectin (approximately 80 nM/well). This αv /β3 receptor preparation contains the αv /β3 with no detectable levels of αv /β5 according to the gel and according to effects of blocking antibodies for the αv /β3 or αv /β5 in the ELISA.
A submaximal concentration of biotinylated vitronectin was selected based on concentration response curves with fixed αv /β3 receptor concentration and variable concentrations of biotinylated vitronectin.
The purified αv /β3 receptor is diluted with coating buffer (20 mM Tris HCl, 150 mM NaCl, 2.0 mM CaCl2, 1.0 mM MgCl2.6H2 O, 1.0 mM MnCl2.4H2 O) and coated (100 μL/well) on Costar (3590) high capacity 96-well plates overnight at 4° C. The coating solution is discarded and the plates washed once with blocking/binding buffer (B/B buffer: 50 mM Tris HCl, 100 mM NaCl, 2.0 mM CaCl2, 1.0 mM MgCl2.6H2 O, 1.0 mM MnCl2.4H2 O). The plate-immobilized αv /β3 receptor is then blocked (200 μl/well) with 3.5% BSA in B/B buffer for 2 hours at room temperature. After washing once with 1.0% BSA in B/B buffer, biotinylated vitronectin (100 μL) and either test compound (inhibitor) (11 μL) or B/B buffer w/1.0% BSA (11 μL) is added to each well. The plates are incubated 2 hours at room temperature. The plates are washed twice with B/B buffer and incubated 1 hour at room temperature with anti-biotin alkaline phosphatase (100 μL/well) in B/B buffer containing 1.0% BSA. The plates are washed twice with B/B buffer and alkaline phosphatase substrate (100 μL) is added. Color is developed at room temperature. Color development is stopped by addition of 2N NaOH (25 μL/well) and absorbance is read at 405 nm.
The inhibitory binding constant (Ki) of test agents 30 may be calculated under this assay system using Michaelis-Menten analysis. The IC50 is the concentration of test substance needed to block 50% of the vitronectin binding to the αv /β3 receptor. The IC50 for the inhibition of binding of vitronectin to the αv /β3 receptor was determined based on time averaged values for the inhibition of vitronectin binding. Thus, the inhibition of vitronectin binding for each concentration of test compound was measured every 30 seconds over a 2 hour period and the average value of inhibition of vitronectin binding over such 2 hour period was used for the determination of the IC50.

[2] = tested on: dog thrombosis model (carotid artery, femoral artery, femoral vein); test: Carotid, Femoral Artery and Femoral Vein Thrombosis in Dogs (Electrolytic Injury Model); type: in vivo; conditions: for Incidence of Occlusion / Time to Occlusion / Blood Flow, Basal / Blood Flow, End: dog carotid artery; for Incidence of Occlusion: saline 44/44; for Time to Occlusion: saline 93 ±30.4; for Blood Flow, End: saline 0; for Thrombus Weight (wet, mg), left femoral vein / Thrombus Weight (wet, mg), left carotid artery: dog, P<0.05
Source text: Carotid, Femoral Artery and Femoral Vein Thrombosis In Dogs (Electrolytic Injury Model)
The thrombosis model used in this study is a modification of the one described by Rote et al., J. Cardiovascular Pharmacolgy, 1993, 23:194-202. The experimental procedure provides the formation of a platelet rich intravascular thrombus at the site of the electrolytically-induced lesion in the arterial side. The femoral artery and carotid artery responses to the electrolytic injury are similar to that observed in the canine coronary artery in which intimal wall injury secondary to application of a direct anodal current leads to platelet adherence with the resultant occlusive thrombus formation (Rote et al., J. Cardiovascular Pharmacolgy, 1993, 23:194-202; Mousa et al., Circulation, 1994, 89:3-12). Animals were instrumented and a 20-30 mm segment of the femoral or carotid arteries were exposed and freed from facia, and branches were tied. Anodal current was applied using an intravascular electrode Penetration of the vessel wall by the electrode was facilitated by attaching the tip of a 23 gauge hypodermic needle to the uninsulated part of the electrode. Each intra-arterial electrode was connected to the positive pole (anodal) of a dual channel stimulator (Ni-Cad battery, 9 volts connected to 250,000 Ohm potentiometer in series). The cathode was connected to a distant subcutaneous site. The current delivered to the arterial wall was monitored continuously and maintained at 200 μA. Proper positioning of the electrode in the artery was confirmed by visual inspection at the end of each experiment. In all experiments the anodal current was applied for a maximum period of 3 hours. Arterial flow was monitored throughout the experiment by placing a doppler flow probe connected to a flow meter around the distal portion of the vessel segment. Similar procedures were applied to the femoral vein. […]

[3] = Bleeding Time in anesthetized dogs (tongue incision); conditions: dog, IV, saline 3-5
Description: (§1) A Simplate device (Organo Teknika) was applied to the surface of the tongue to make a uniform incision and blood was blotted with filter paper at 30 seconds intervals until bleeding completely stopped, with a 15 minutes cutoff time. Bleeding time was assessed before and at different intervals post-administration of test agent.

[4] = dog, in vivo, iv
Description: as §1

[5] = dog, in vivo
Description: Clotting Assay (Thrombin and Apothrombin Times)
Arterial blood samples were collected in 1/10th volume 3.8% sodium citrate and stored on ice for less than ten 10 minutes. Samples were centrifuged (10,000× g, 1.5 minutes) and plasma separated from cellular components. Clotting assays were performed within 30 minutes of collection in a fibrometer (BBL Bibrosystem) at 37° C. Thrombin time determinations were performed at a final thrombin concentration of 4 units/mL. Activated partial thromboplastin time (also referred to as apothrombin time) (APTT) was determined by incubating 0.1 mL plasma with 0.1 mL APTT reagent (Sigma Chemical) for three minutes, followed by addition of 0.1 mL of 25 mM CaCl2. Prothrombin time was determined by incubating 0.1 mL plasma with 0.1 mL thromboplastin, and clotting initiated by addition of 0.1 mL of 25 mM CaCl2. Assays were performed in duplicate.

[6] = 0.1 mg/kg IV bolus + 0.1 mg/kg IV infusion 3 hr
[7] = 0.1 mg/kg IV bolus + 0.4 mg/kg IV infusion 3 hr

Compound: C[C@@H]1NC(=O)c2cccc(c2)CNC(=O)[C@H](CC(=O)O)NC(=O)CNC(=O)[C@H](CCCNC(=N)N)NC1=O [Compound A, cyclo-(Ala-Arg-Gly-Asp-Mamb)] (cyclo(RGD[3Amb]A))
- IC50 [1]: 3.8 nM
- Relative Binding Affinity for αv /β3 Relative to GPIIb/IIIa [1]: 107
- Incidence of Occlusion [2, 6]: 0/4
- Time to Occlusion [2, 6]: > 180 min
- Blood Flow, Basal ([2]; 0.1 mg/kg IV bolus + 0.1 mg/kg IV infusion 3 hr, spread ±4.7): 29.4 cm/s
- Blood Flow, End ([2]; 0.1 mg/kg IV bolus + 0.1 mg/kg IV infusion 3 hr, spread ±11): 16.3 cm/s
- Incidence of Occlusion [2, 7]: 0/4
- Time to Occlusion [2, 7]: > 180 min
- Blood Flow, Basal ([2]; 0.1 mg/kg IV bolus + 0.4 mg/kg IV infusion 3 hr, spread ±2.7): 30.2 cm/s
- Blood Flow, End ([2]; 0.1 mg/kg IV bolus + 0.4 mg/kg IV infusion 3 hr, spread ±8.1): 23.8 cm/s
- Cyclic Flow Rate (frequency/hr) ([2]; dog femoral artery, 0.1 mg/kg IV bolus + 0.1 mg/kg IV infusion 3 hr, n=4, mean ± SD, P<0.01, saline 8 ± 5.5): 0.5 ± 0.4 frequency/hr
- Thrombus Weight (wet, mg), left femoral vein ([2]; 0.1 mg/kg IV bolus + 0.4 mg/kg infusion 3 hr, n=4, mean ± SD, saline 18 ± 5): 2 ± 1 mg
- Thrombus Weight (wet, mg), left carotid artery ([2]; 0.1 mg/kg IV bolus + 0.4 mg/kg infusion 3 hr, n=4, mean ± SD, saline 53 ± 4): 13 ± 2 mg
- Thrombus Weight (wet, mg), left carotid artery ([2]; 1 mg/kg IV bolus, n=3, 200 μA, mean ± SD, saline right carotid 51 ± 4): 14 ± 4 mg
- Thrombus Weight (wet, mg), left femoral vein ([2]; 1 mg/kg IV bolus, n=3, 200 μA, mean ± SD, saline right femoral vein 18 ± 5): 4 ± 3 mg
- Bleeding Time ([3]; 1 mg/kg): 3 to 4 min
- Bleeding Time ([3]; 3 mg/kg): 3 to 4 min
- Bleeding Time ([3]; 10 mg/kg): 5 to 6 min

Compound: N=C(N)NCCC[C@@H]1NC(=O)[C@@H]2CCCN2C(=O)c2cccc(c2)CNC(=O)[C@H](CC(=O)O)NC(=O)CNC1=O [Compound B, cyclo-(Pro-Arg-Gly-Asp-Mamb)] (cyclo(RGD[3Amb]P))
- Bleeding Time ([4]; 1 mg/kg): 3 to 4 min
- Bleeding Time ([4]; 3 mg/kg): 3 to 4 min
- Bleeding Time ([4]; 10 mg/kg): 3 to 4 min
- IC50 [1]: 0.7 nM
- Relative Binding Affinity for αv /β3 Relative to GPIIb/IIIa [1]: 2171
- effect on apothrombin time or thrombin time [5]: no effect on apothrombin time or thrombin time
